Publication PMC9494668 (ACS Omega, 2022)
Converted amounts (≈) assume the structure as drawn. Read-outs that look alike come from different tables or passages of the source.

Experiments:
[1] = system: methicillin-susceptible strains of Staphylococcus aureus ATCC 29213; test: Microtitre broth dilution MIC, MSSA; type: cell-based; settings: ATCC29213|MSSA, read-out: MIC, MSSA
[2] = system: Pseudomonas aeruginosa ATCC 27853; test: Microtitre broth dilution MIC, Pseudomonas aeruginosa; type: cell-based; settings: ATCC27853, read-out: MIC, PA
[3] = system: Salmonella enterica ATCC 10428; test: Microtitre broth dilution MIC, Salmonella enterica; type: cell-based; settings: ATCC10428, read-out: MIC, SE
[4] = system: Streptococcus faecalis ATCC 29212; test: Microtitre broth dilution MIC, Streptococcus faecalis; type: cell-based; settings: Enterococcus faecalis, ATCC29212, read-out: MIC, SF
[5] = system: Escherichia coli ATCC 25922; test: Microtitre broth dilution MIC, Escherichia coli; type: cell-based; settings: ATCC25922, read-out: MIC, EC
[6] = system: methicillin-resistant strains of Staphylococcus aureus ATCC 43300; test: Microtitre broth dilution MIC, MRSA; type: cell-based; settings: ATCC43300|MRSA, read-out: MIC, MRSA
drug-resistant fungi = settings: ref [17]; cited from earlier work
[7] = system: Candida albicans, Candida glabrata, Candida krusei, and Candida tropicalis; settings: cited from earlier work
[8] = system: Candida albicans ATCC 10321; test: microbe, parasite or virus in culture; type: cell-based
[9] = system: Aspergillus niger ATCC 16404; test: microbe, parasite or virus in culture; type: cell-based
[10] = system: MCF7 human breast cancer cell line; test: MTT cytotoxicity, MCF7; type: cell-based; settings: MCF7, 48 h, read-out: Anticancer activity IC50, MCF7
[11] = system: HepG2 human hepatocyte carcinoma cell line; test: MTT cytotoxicity, HepG2; type: cell-based; settings: HepG2, 48 h, read-out: Anticancer activity IC50, HepG2
[12] = system: H69PR human small cell lung cancer cell line; test: MTT cytotoxicity, H69PR; type: cell-based; settings: 48 h, read-out: Anticancer activity IC50, H69PR
[13] = system: C26 colon carcinoma cell line; test: MTT cytotoxicity, C26; type: cell-based; settings: 48 h, read-out: Anticancer activity IC50, C26
VEGFR-2 = VEGFR-2 (Homo sapiens, UniProt P35968); test: In vitro VEGFR-2 kinase inhibition assay; type: biochemical; settings: for IC50: IC50 VEGFR-2 inhibitory activity, IC50 ± SEM; for inhibitory activity on VEGFR-2 relative to DHFR: times better on the VEGFR-2 receptor than the DHFR receptor
DHFR = target: T1, DHFR (Homo sapiens, UniProt P00374); test: In vitro dihydrofolate reductase inhibition assay; type: biochemical; settings: IC50 DHFR inhibitory activity, IC50 ± SEM
T1 sequence (P00374 1-187): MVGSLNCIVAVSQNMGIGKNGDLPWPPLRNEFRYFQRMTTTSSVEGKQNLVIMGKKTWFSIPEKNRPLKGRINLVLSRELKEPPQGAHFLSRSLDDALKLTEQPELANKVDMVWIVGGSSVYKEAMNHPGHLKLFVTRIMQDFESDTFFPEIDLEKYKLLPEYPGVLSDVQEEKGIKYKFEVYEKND

[14] = system: bacterial strains (EC, PA, SF, SE, MSSA, MRSA) and fungi (CA, AN); test: Microtitre broth dilution MIC, stated over several strains; type: cell-based

Chain of VEGFR-2 (P35968 20-1356): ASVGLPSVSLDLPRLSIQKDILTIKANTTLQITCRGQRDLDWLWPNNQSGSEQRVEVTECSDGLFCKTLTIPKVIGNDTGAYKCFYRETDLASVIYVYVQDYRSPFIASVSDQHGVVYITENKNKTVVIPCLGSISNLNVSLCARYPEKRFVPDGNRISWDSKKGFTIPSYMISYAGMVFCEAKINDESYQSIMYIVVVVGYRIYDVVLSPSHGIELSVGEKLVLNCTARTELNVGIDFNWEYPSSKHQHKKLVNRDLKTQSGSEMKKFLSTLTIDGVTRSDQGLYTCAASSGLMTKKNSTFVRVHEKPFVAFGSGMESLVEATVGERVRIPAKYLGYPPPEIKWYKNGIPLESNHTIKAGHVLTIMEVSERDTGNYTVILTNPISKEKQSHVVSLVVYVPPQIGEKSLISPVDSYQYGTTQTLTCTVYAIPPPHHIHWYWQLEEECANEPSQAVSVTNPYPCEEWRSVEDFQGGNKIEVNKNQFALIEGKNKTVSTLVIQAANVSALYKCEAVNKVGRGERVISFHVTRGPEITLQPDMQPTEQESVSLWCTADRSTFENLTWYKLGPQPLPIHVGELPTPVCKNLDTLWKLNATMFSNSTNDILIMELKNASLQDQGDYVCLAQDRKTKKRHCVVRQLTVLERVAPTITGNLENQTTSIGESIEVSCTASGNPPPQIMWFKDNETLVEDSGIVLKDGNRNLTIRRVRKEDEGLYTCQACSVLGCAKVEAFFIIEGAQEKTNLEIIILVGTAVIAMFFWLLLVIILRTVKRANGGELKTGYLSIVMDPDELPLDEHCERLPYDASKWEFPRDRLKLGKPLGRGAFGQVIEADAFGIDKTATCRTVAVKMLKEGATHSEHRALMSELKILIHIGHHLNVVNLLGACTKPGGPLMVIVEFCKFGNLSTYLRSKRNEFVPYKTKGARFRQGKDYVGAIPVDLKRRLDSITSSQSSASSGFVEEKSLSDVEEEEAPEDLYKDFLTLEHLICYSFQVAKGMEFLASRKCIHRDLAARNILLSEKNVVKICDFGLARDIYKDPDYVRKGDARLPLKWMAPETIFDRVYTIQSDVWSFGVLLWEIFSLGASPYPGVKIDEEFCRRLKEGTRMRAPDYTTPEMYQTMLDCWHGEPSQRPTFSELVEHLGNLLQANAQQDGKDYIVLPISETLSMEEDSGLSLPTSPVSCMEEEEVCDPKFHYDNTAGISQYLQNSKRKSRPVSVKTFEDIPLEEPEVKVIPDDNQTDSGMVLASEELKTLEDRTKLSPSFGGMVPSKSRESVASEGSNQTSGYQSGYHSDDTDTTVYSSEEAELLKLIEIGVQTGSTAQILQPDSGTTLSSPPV

Compound	MIC [1] [µg/mL]	MIC [2] [µg/mL]	MIC [3] [µg/mL]	MIC [4] [µg/mL]	MIC [5] [µg/mL]	MIC [6] [µg/mL]	MIC ([8]; ATCC10321, read-out: MIC, CA) [µg/mL]	MIC ([9]; ATCC16404, read-out: MIC, AN) [µg/mL]	IC50 [10] [µM]	IC50 [11] [µM]	IC50 [12] [µM]	IC50 [13] [µM]	also measured
O=C(O)c1cn(C2CC2)c2cc(N3CCNCC3)c(F)cc2c1=O [Cipro, ciprofloxacin, reference compound]	8 (≈ 24.1 µM)	16 (≈ 48.3 µM)	8 (≈ 24.1 µM)	8 (≈ 24.1 µM)	16 (≈ 48.3 µM)	16 (≈ 48.3 µM)							
OC(Cn1cncn1)(Cn1cncn1)c1ccc(F)cc1F [Flu, fluconazole, reference compound]							4 (≈ 13.1 µM)	128 (≈ 418 µM)					MIC50, drug-resistant fungi (drug-resistant fungi): > 16 µg/mL; MIC50, Candida species ([7]; Candida albicans, glabrata, krusei, tropicalis, ref [17]): 0.25 to 2.00 µg/mL
COc1cc(OC)c2cc(C(=O)NCc3ccc(C)cc3)cc(O)c2c1 [5a, 4-Hydroxy-6,8-dimethoxy-N-(4-methylbenzyl)-2-naphthamide]		64 (≈ 182 µM)	64 (≈ 182 µM)	64 (≈ 182 µM)	64 (≈ 182 µM)	128 (≈ 364 µM)	128 (≈ 364 µM)	256 (≈ 729 µM)	10.3 ± 2.11	13.6 ± 1.37	34.2 ± 5.64	9.21 ± 2.3	
COc1cc(OC)c2c(O)cc(C(=O)NCCCN3CCOCC3)cc2c1 [4b, 4-Hydroxy-5,7-dimethoxy-N-(3-morpholinopropyl)-2-naphthamide]	64 (≈ 171 µM)	128 (≈ 342 µM)	64 (≈ 171 µM)	128 (≈ 342 µM)	128 (≈ 342 µM)	256 (≈ 684 µM)	64 (≈ 171 µM)	256 (≈ 684 µM)	18.6 ± 1.84	17.8 ± 2.46	53.7 ± 3.55	25.1 ± 3.23	
COc1cc(OC)c2c(O)cc(C(=O)NCc3ccc(C)cc3)cc2c1 [5b, 4-Hydroxy-5,7-dimethoxy-N-(4-methylbenzyl)-2-naphthamide]	16 (≈ 45.5 µM)	64 (≈ 182 µM)	32 (≈ 91.1 µM)	32 (≈ 91.1 µM)	64 (≈ 182 µM)	32 (≈ 91.1 µM)	64 (≈ 182 µM)	256 (≈ 729 µM)	6.75 ± 1.95	8.38 ± 1.14	28.4 ± 3.7	3.59 ± 1.04	IC50 (VEGFR-2): 0.623 ± 0.056 µM; inhibitory activity on VEGFR-2 relative to DHFR (VEGFR-2): 15–20 times; IC50 (DHFR): 9.09 ± 0.511 µM; MIC ([14]; Staphylococcus aureus, MRSA|MSSA, read-out: MIC against SE, SF, MSSA, and MRSA): 16 to 32 µg/mL (≈ 45.5 to 91.1 µM)
COc1cc(OC)c2cc(C(=O)NCc3ccc(Cl)cc3)cc(O)c2c1 [8a, N-(4-chlorobenzyl)-4-hydroxy-6,8-dimethoxy-2-naphthamide]	32 (≈ 86.1 µM)	64 (≈ 172 µM)	64 (≈ 172 µM)	64 (≈ 172 µM)	64 (≈ 172 µM)	128 (≈ 344 µM)	64 (≈ 172 µM)	256 (≈ 689 µM)	12.4 ± 1.34	10.1 ± 1.17	25.4 ± 3.02	8.61 ± 1.49	
COc1ccc(CNC(=O)c2cc(O)c3c(OC)cc(OC)cc3c2)cc1 [6b, 4-Hydroxy-5,7-dimethoxy-N-(4-methoxybenzyl)-2-naphthamide]	32 (≈ 87.1 µM)	128 (≈ 348 µM)	32 (≈ 87.1 µM)	32 (≈ 87.1 µM)	64 (≈ 174 µM)	32 (≈ 87.1 µM)	64 (≈ 174 µM)	256 (≈ 697 µM)	13.3 ± 2.69	14 ± 1.4	28.5 ± 3.29	12.3 ± 2.15	
CC(=O)O[C@H]1C(=O)[C@@]2(C)[C@H]([C@H](OC(=O)c3ccccc3)[C@]3(O)C[C@H](OC(=O)[C@H](O)[C@@H](NC(=O)c4ccccc4)c4ccccc4)C(C)=C1C3(C)C)[C@]1(OC(C)=O)CO[C@@H]1C[C@@H]2O [PTX, paclitaxel, reference compound]									2.85 ± 0.43	5.75 ± 0.6	7.29 ± 0.91	3.96 ± 0.54	
COc1cc(OC)c2c(O)cc(C(=O)NCc3ccc(Cl)cc3)cc2c1 [8b, N-(4-chlorobenzyl)-4-hydroxy-5,7-dimethoxy-2-naphthamide]	8 (≈ 21.5 µM)	64 (≈ 172 µM)	16 (≈ 43 µM)	16 (≈ 43 µM)	16 (≈ 43 µM)	16 (≈ 43 µM)	64 (≈ 172 µM)	256 (≈ 689 µM)	3.58 ± 1.06	7.12 ± 1.25	12.8 ± 2.83	2.97 ± 0.98	IC50 (VEGFR-2): 0.384 ± 0.047 µM; inhibitory activity on VEGFR-2 relative to DHFR (VEGFR-2): 15–20 times; IC50 (DHFR): 7.88 ± 0.442 µM; fold antibacterial activity relative to compound 5b ([14]; strains SF, SE, MSSA, and MRSA): more than 2 fold
CN(C/C=C/c1ccccc1)Cc1cccc2ccccc12 [naftifine]													MIC50, Candida species [7]: 0.25 to 2.00 µg/mL
COc1ccc(CNC(=O)c2cc(O)c3cc(OC)cc(OC)c3c2)cc1 [6a, 4-Hydroxy-6,8-dimethoxy-N-(4-methoxybenzyl)-2-naphthamide]	32 (≈ 87.1 µM)	64 (≈ 174 µM)	64 (≈ 174 µM)	64 (≈ 174 µM)	64 (≈ 174 µM)	128 (≈ 348 µM)			15.9 ± 1.28	17.4 ± 1.51	29.2 ± 2.65	14.4 ± 1.62	MIC ([8]; ATCC10321, 72 h, read-out: MIC, CA): 256 µg/mL (≈ 697 µM); MIC ([9]; ATCC16404, 72 h, read-out: MIC, AN): 256 µg/mL (≈ 697 µM)
COc1cc(OC)c2cc(C(=O)NCCCN3CCOCC3)cc(O)c2c1 [4a, 4-Hydroxy-6,8-dimethoxy-N-(3-morpholinopropyl)-2-naphthamide]	64 (≈ 171 µM)	128 (≈ 342 µM)	64 (≈ 171 µM)	128 (≈ 342 µM)	128 (≈ 342 µM)	256 (≈ 684 µM)	128 (≈ 342 µM)	256 (≈ 684 µM)	16.1 ± 2.42	14.5 ± 2.02	52.2 ± 4.81	23.8 ± 2.93	
COc1cc(OC)c2c(O)cc(C(=O)NCc3ccc(Br)cc3)cc2c1 [7b, N-(4-bromobenzyl)-4-hydroxy-5,7-dimethoxy-2-naphthamide]	32 (≈ 76.9 µM)	64 (≈ 154 µM)	32 (≈ 76.9 µM)	32 (≈ 76.9 µM)	64 (≈ 154 µM)	64 (≈ 154 µM)	64 (≈ 154 µM)	256 (≈ 615 µM)	11.5 ± 1.61	12.1 ± 1.09	21.3 ± 3.04	9.83 ± 1.54	
COc1cc(OC)c2cc(C(=O)NCc3ccc(Br)cc3)cc(O)c2c1 [7a, N-(4-bromobenzyl)-4-hydroxy-6,8-dimethoxy-2-naphthamide]		64 (≈ 154 µM)	64 (≈ 154 µM)	64 (≈ 154 µM)	64 (≈ 154 µM)	128 (≈ 307 µM)	128 (≈ 307 µM)	256 (≈ 615 µM)	19.8 ± 1.59	16.7 ± 1.68	23 ± 2.87	18.5 ± 1.73	
